Drawing on publication PMC6150310, “Synthesis and Structure–Activity Relationships of 4-Morpholino-7,8-Dihydro-5H-Thiopyrano[4,3-d]pyrimidine Derivatives Bearing Pyrazoline Scaffold” (Molecules : A Journal of Synthetic Chemistry and Natural …, 2017), this text covers melting point and IC50 for 18 molecules.

The subject of one data set is A549 cell line. Nature of the data set: MTT cytotoxicity assay, A549. Format: cell-based. The conditions noted are these: Homo sapiens, A549, 72 h, average of two determinations, NA = No Activity. As to the method: (§1) Taking GDC-0941 as the reference compound, the target compounds (7a–l and 8a–l) were evaluated for the cytotoxicity against four cancer cell lines A549, PC-3, MCF-7, and HepG2 by 3-(4,5-dimethylthiazolyl-2)-2,5-diphenyltetrazolium bromide (MTT) cell proliferation assay. In order to confirm the types of target compound, selective or mixed-type inhibitors, the selected compound, 8d, was measured for its PI3Kα kinase inhibitory activity together with reference compounds GDC-0941 and PI103 via the Kinase-Glo® Luminescent […] assay. The results expressed as inhibition rates or IC50 values are summarized in Table 1 and Table 2, where the values are the average of at least two independent experiments.
(§2) The in vitro cytotoxic activities of Compounds 7a–l and 8a–l were evaluated with A549, PC-3, HepG2, and MCF-7 cell lines by the standard MTT assay, with GDC-0941 as a positive control. The cancer cell lines were cultured in minimum essential medium (MEM) supplement with 10% fetal bovine serum (FBS). Approximately, 4 × 10^3 cells, suspended in MEM medium, were plated onto each well of a 96-well plate and incubated in 5% CO2 at 37 °C for 24 h. The test compounds at the indicated final concentrations were added to the culture medium, and cell cultures continued for 72 h. Fresh MTT was added to each well at a terminal concentration of […] and incubated with cells at 37 °C for 4 h. The formazan crystals were dissolved in 100 µL of DMSO in each well, and the absorbency at 492 nm (for absorbance of MTT formazan) and 630 nm (for the reference wavelength) was measured with an enzyme linked immunosorbent assay (ELISA) reader (MR-96A Mindray Elisa Microplate Reader, Guangzhou, China). All compounds were tested three times in each of the cell lines. The results expressed as inhibition rates or IC50 were the averages of two determinations and calculated using the Bacus Laboratories Inc. Slide Scanner (Bliss) software (the Bacus Laboratories Inc. Slide Scanner (BLISS) system, Lombard, IL, USA).

A further data set has as its system PC-3 cell line. Nature of the data set: MTT cytotoxicity assay, PC-3. The class given is cell-based. The conditions noted are these: Homo sapiens, PC-3, 72 h, average of two determinations, NA = No Activity. As to the method: as §1, §2
The next data set has as its system MCF-7 cell line. Briefly: MTT cytotoxicity assay, MCF-7. Format: cell-based. The conditions noted are these: Homo sapiens, MCF7, 72 h, average of two determinations, NA = No Activity. As to the method:
as §1, §2

The test system of the next data set is HepG2 cell line. Briefly: MTT cytotoxicity assay, HepG2. The conditions noted are these: Homo sapiens, HepG2, 72 h, average of two determinations, NA = No Activity. The class given is cell-based. As to the method: as §1, §2

Consider `COc1ccc(C2=NN(c3nc4c(c(N5CCOCC5)n3)CSCC4)[C@@H](c3ccccc3)C2)cc1` [Compound 7l, (R)-4-(2-(3-(4-Methoxyphenyl)-5-phenyl-4,5-dihydro-1H-pyrazol-1-yl)-7,8-dihydro-5H-thiopyrano[4,3-d]pyrimidin-4-yl)morpholine], for which the melting point was greater than 300 °C. In the data set with A549 cell line, this molecule displayed an IC50 of 36.4 ± 0.62 µM. Moreover, the midpoint of inhibition with PC-3 cell line, the IC50, lay at 28.25 ± 0.14 µM.

`COc1ccc(C2=NN(c3nc4c(c(N5CCOCC5)n3)CS(=O)(=O)CC4)[C@@H](c3ccc(F)cc3)C2)cc1` [Compound 8h, (R)-2-(5-(4-Fluorophenyl)-3-(4-methoxyphenyl)-4,5-dihydro-1H-pyrazol-1-yl)-4-morpholino-7,8-dihydro-5H-thiopyrano[4,3-d]pyrimidine 6,6-dioxide] gave a melting point of 140 to 142 °C. Further, half-maximal inhibition in the data set with MCF-7 cell line (IC50) was put at 33.9 ± 0.45 µM. In the data set on A549 cell line, this molecule registered an IC50 of 35 ± 0.74 µM. Moreover, in the data set on HepG2 cell line, the IC50 is 32.9 ± 2.82 µM. Also, the IC50 in the data set with PC-3 cell line stood at 26.6 ± 0.33 µM.

Consider `O=S1(=O)CCc2nc(N3N=C(c4ccc(F)cc4)C[C@@H]3c3ccc(Br)cc3)nc(N3CCOCC3)c2C1` (racemic) [Compound 8j, (R)-2-(5-(4-Bromophenyl)-3-(4-fluorophenyl)-4,5-dihydro-1H-pyrazol-1-yl)-4-morpholino-7,8-dihydro-5H-thiopyrano[4,3-d]pyrimidine 6,6-dioxide], for which the IC50 with MCF-7 cell line turned out to be 46.6 ± 0.89 µM; in the data set on A549 cell line it was 29.7 ± 0.32 µM; in the data set with HepG2 cell line, 27.8 ± 0.64 µM; in the data set on PC-3 cell line it was 31.9 ± 0.92 µM.

Regarding `CS(=O)(=O)N1CCN(Cc2cc3nc(-c4cccc5[nH]ncc45)nc(N4CCOCC4)c3s2)CC1` [GDC-0941, Pictilisib dimethanesulfonate, reference compound], the IC50 turned out to be 4.3 ± 0.84 µM in the data set with MCF-7 cell line, 6.99 ± 0.21 µM in the data set with A549 cell line, 0.07 ± 0.03 µM in the data set on HepG2 cell line and 0.2 ± 0.08 µM in the data set with PC-3 cell line.

Turning to `COc1ccc(C2=NN(c3nc4c(c(N5CCOCC5)n3)CSCC4)[C@@H](c3ccc(F)cc3)C2)cc1` [Compound 7h, (R)-4-(2-(5-(4-Fluorophenyl)-3-(4-methoxyphenyl)-4,5-dihydro-1H-pyrazol-1-yl)-7,8-dihydro-5H-thiopyrano[4,3-d]pyrimidin-4-yl)morpholine], the melting point fell in the range of 116 to 118 °C. In addition, the IC50 in the data set with MCF-7 cell line was determined as 30.3 ± 0.88 µM. Half-maximal inhibition in the data set with A549 cell line (IC50) required 26.7 ± 0.88 µM. The molecule further came in with an IC50 with HepG2 cell line of 20.5 ± 0.67 µM. The same molecule registered an IC50 in the data set with PC-3 cell line of 29.8 ± 0.89 µM.

For the molecule `Brc1ccc([C@H]2CC(c3ccccc3)=NN2c2nc3c(c(N4CCOCC4)n2)CSCC3)cc1` [Compound 7k, (R)-4-(2-(5-(4-Bromophenyl)-3-phenyl-4,5-dihydro-1H-pyrazol-1-yl)-7,8-dihydro-5H-thiopyrano[4,3-d]pyrimidin-4-yl)morpholine], the melting point lay in the range of 167 to 168 °C. This molecule also yielded an IC50 in the data set on MCF-7 cell line of 35.7 ± 0.74 µM. The IC50 with A549 cell line came to 31.2 ± 0.59 µM. In the data set with HepG2 cell line, this molecule had a 50% inhibitory concentration (IC50) of 32.7 ± 0.36 µM. This molecule also had an IC50 in the data set with PC-3 cell line of 17.8 ± 0.55 µM.

Consider `Cc1ccc(C2=NN(c3nc4c(c(N5CCOCC5)n3)CS(=O)(=O)CC4)[C@@H](c3ccc(Br)cc3)C2)cc1` (racemic) [Compound 8i, (R)-2-(5-(4-Bromophenyl)-3-(p-tolyl)-4,5-dihydro-1H-pyrazol-1-yl)-4-morpholino-7,8-dihydro-5H-thiopyrano[4,3-d]pyrimidine 6,6-dioxide], for which the IC50 turned out to be 28.1 ± 0.89 µM in the data set on A549 cell line, 24.7 ± 0.74 µM in the data set with HepG2 cell line and 31.89 ± 0.25 µM in the data set with PC-3 cell line.

For the molecule `O=S1(=O)CCc2nc(N3N=C(c4ccc(Br)cc4)C[C@@H]3c3ccc(Cl)c(Cl)c3)nc(N3CCOCC3)c2C1` [Compound 8c, (R)-2-(3-(4-Bromophenyl)-5-(3,4-dichlorophenyl)-4,5-dihydro-1H-pyrazol-1-yl)-4-morpholino-7,8-dihydro-5H-thiopyrano[4,3-d]pyrimidine 6,6-dioxide], the melting point fell in the range of 162 to 163 °C. Besides, the IC50 in the data set with MCF-7 cell line was 43.86 ± 0.15 µM. Besides, it took 27.8 ± 1.18 µM to reach half-maximal inhibition in the data set on A549 cell line (IC50). It took 0.06 ± 0.01 µM to reach half-maximal inhibition with HepG2 cell line (IC50). The half-inhibitory concentration (IC50) in the data set on PC-3 cell line was 37.58 ± 0.22 µM.

`Fc1ccc(C2=NN(c3nc4c(c(N5CCOCC5)n3)CSCC4)[C@@H](c3ccc(Cl)c(Cl)c3)C2)cc1` [Compound 7d, (R)-4-(2-(5-(3,4-Dichlorophenyl)-3-(4-fluorophenyl)-4,5-dihydro-1H-pyrazol-1-yl)-7,8-dihydro-5H-thiopyrano[4,3-d]pyrimidin-4-yl)morpholine] yielded a melting point of 207 to 211 °C. Also, the midpoint of inhibition in the data set with MCF-7 cell line, the IC50, lay at 10.3 ± 0.94 µM. Besides, the IC50 in the data set on A549 cell line turned out to be 6.02 ± 1.22 µM. In the data set on HepG2 cell line, this molecule showed an IC50 of 8.39 ± 1.91 µM. Besides, the IC50 in the data set with PC-3 cell line was 8.91 ± 0.72 µM.

Consider `O=S1(=O)CCc2nc(N3N=C(c4ccc(F)cc4)C[C@@H]3c3ccc(F)cc3)nc(N3CCOCC3)c2C1` [Compound 8g, (R)-2-(3,5-bis(4-Fluorophenyl)-4,5-dihydro-1H-pyrazol-1-yl)-4-morpholino-7,8-dihydro-5H-thiopyrano[4,3-d]pyrimidine 6,6-dioxide], for which the melting point fell in the range of 246 to 249 °C. The molecule further came in with an IC50 in the data set with MCF-7 cell line of 35.3 ± 0.39 µM. This molecule gave an IC50 with A549 cell line of 29.1 ± 0.49 µM. The molecule also had an IC50 with HepG2 cell line of 36.01 ± 0.18 µM. Also, half-maximal inhibition with PC-3 cell line (IC50) required 21.8 ± 0.67 µM.

The molecule `COc1ccc(C2=NN(c3nc4c(c(N5CCOCC5)n3)CS(=O)(=O)CC4)[C@@H](c3ccccc3)C2)cc1` [Compound 8l, (R)-2-(3-(4-Methoxyphenyl)-5-phenyl-4,5-dihydro-1H-pyrazol-1-yl)-4-morpholino-7,8-dihydro-5H-thiopyrano[4,3-d]pyrimidine 6,6-dioxide] returned a melting point of 109 to 114 °C. This molecule registered an IC50 with PC-3 cell line of 37.38 ± 0.23 µM.

As for `Clc1ccc([C@H]2CC(c3ccccc3)=NN2c2nc3c(c(N4CCOCC4)n2)CSCC3)cc1Cl` (racemic) [Compound 7e, (R)-4-(2-(5-(3,4-Dichlorophenyl)-3-phenyl-4,5-dihydro-1H-pyrazol-1-yl)-7,8-dihydro-5H-thiopyrano[4,3-d]pyrimidin-4-yl)morpholine], the IC50 is 35.9 ± 0.71 µM in the data set with MCF-7 cell line and 37.8 ± 3.64 µM with PC-3 cell line.

For `Fc1ccc(C2=NN(c3nc4c(c(N5CCOCC5)n3)CSCC4)[C@@H](c3ccc(Br)cc3)C2)cc1` (racemic) [Compound 7j, (R)-4-(2-(5-(4-Bromophenyl)-3-(4-fluorophenyl)-4,5-dihydro-1H-pyrazol-1-yl)-7,8-dihydro-5H-thiopyrano[4,3-d]pyrimidin-4-yl)morpholine], the IC50 in the data set on MCF-7 cell line was 28.25 ± 0.14 µM; in the data set with A549 cell line, 19.2 ± 1.25 µM; with HepG2 cell line it was 23.8 ± 0.55 µM; in the data set with PC-3 cell line, 14.8 ± 1.02 µM.

With `Cc1ccc(C2=NN(c3nc4c(c(N5CCOCC5)n3)CSCC4)[C@@H](c3ccc(Br)cc3)C2)cc1` (racemic) [Compound 7i, (R)-4-(2-(5-(4-Bromophenyl)-3-(p-tolyl)-4,5-dihydro-1H-pyrazol-1-yl)-7,8-dihydro-5H-thiopyrano[4,3-d]pyrimidin-4-yl)morpholine], the IC50 with A549 cell line was determined as 16.4 ± 0.43 µM; with PC-3 cell line, 25.4 ± 0.74 µM.

Molecule `O=S1(=O)CCc2nc(N3N=C(c4ccccc4)C[C@@H]3c3ccccc3)nc(N3CCOCC3)c2C1` [Compound 8a, (R)-2-(3,5-Diphenyl-4,5-dihydro-1H-pyrazol-1-yl)-4-morpholino-7,8-dihydro-5H-thiopyrano[4,3-d]pyrimidine 6,6-dioxide] yielded a melting point of 219 to 220 °C. Further, in the data set with MCF-7 cell line, half-maximal inhibition (IC50) required 41.2 ± 1.25 µM. 27.6 ± 0.85 µM corresponded to half-maximal inhibition in the data set on A549 cell line (IC50). Moreover, in the data set on HepG2 cell line, the IC50 is 32.7 ± 0.39 µM.

On to `COc1ccc(C2=NN(c3nc4c(c(N5CCOCC5)n3)CS(=O)(=O)CC4)[C@@H](c3ccc(Cl)c(Cl)c3)C2)cc1` [Compound 8f, (R)-2-(5-(3,4-Dichlorophenyl)-3-(4-methoxyphenyl)-4,5-dihydro-1H-pyrazol-1-yl)-4-morpholino-7,8-dihydro-5H-thiopyrano[4,3-d]pyrimidine 6,6-dioxide], for which the IC50 was found to be 35.01 ± 0.18 µM in the data set on HepG2 cell line and 38.65 ± 0.18 µM in the data set with PC-3 cell line.

`O=S1(=O)CCc2nc(N3N=C(c4ccccc4)C[C@@H]3c3ccc(Cl)c(Cl)c3)nc(N3CCOCC3)c2C1` [Compound 8e, (R)-2-(5-(3,4-Dichlorophenyl)-3-phenyl-4,5-dihydro-1H-pyrazol-1-yl)-4-morpholino-7,8-dihydro-5H-thiopyrano[4,3-d]pyrimidine 6,6-dioxide]: in the data set with MCF-7 cell line, the IC50 was 35.3 ± 0.49 µM.

As to `Cc1ccc(C2=NN(c3nc4c(c(N5CCOCC5)n3)CS(=O)(=O)CC4)[C@@H](c3ccc(Cl)c(Cl)c3)C2)cc1` [Compound 8b, (R)-2-(5-(3,4-Dichlorophenyl)-3-(p-tolyl)-4,5-dihydro-1H-pyrazol-1-yl)-4-morpholino-7,8-dihydro-5H-thiopyrano[4,3-d]pyrimidine 6,6-dioxide], the melting point was 225 to 226 °C. For the same molecule, the IC50 with MCF-7 cell line is 42.46 ± 0.03 µM. The same molecule came in with an IC50 in the data set on A549 cell line of 35.6 ± 1.47 µM. Further, the IC50 with PC-3 cell line came to 17.8 ± 1.18 µM.
